From ChEMBL document CHEMBL1201862, “PubChem BioAssay data set” (2004)
Active and inactive are the calls of the source.

Columns and labels:
Assay type in all cases: functional
[1] = molecular target: T1, High affinity choline transporter 1 (Homo sapiens, UniProt Q9GZV3); assay: CHT inhibitors, dose response, cell-based, 5-point CRC, membrane potential dye (AID 504840)
T1 sequence (Q9GZV3 whole entry): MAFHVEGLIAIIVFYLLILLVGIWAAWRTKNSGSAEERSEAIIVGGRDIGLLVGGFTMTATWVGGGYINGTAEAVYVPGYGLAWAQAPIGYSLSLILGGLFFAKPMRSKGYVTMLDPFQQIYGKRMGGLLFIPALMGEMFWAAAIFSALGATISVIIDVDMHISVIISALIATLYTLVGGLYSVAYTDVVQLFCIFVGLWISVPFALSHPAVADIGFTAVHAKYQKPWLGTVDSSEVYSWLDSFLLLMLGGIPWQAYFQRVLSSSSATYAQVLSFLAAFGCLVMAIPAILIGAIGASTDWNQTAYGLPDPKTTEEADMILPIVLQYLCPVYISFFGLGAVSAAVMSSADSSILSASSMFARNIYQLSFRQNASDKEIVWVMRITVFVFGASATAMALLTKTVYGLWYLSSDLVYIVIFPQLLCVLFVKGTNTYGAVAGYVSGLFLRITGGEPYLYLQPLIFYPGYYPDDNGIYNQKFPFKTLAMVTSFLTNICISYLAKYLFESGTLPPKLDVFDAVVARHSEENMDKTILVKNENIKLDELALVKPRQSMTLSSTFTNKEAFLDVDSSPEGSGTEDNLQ

[2] = molecular target: T1, High affinity choline transporter 1; assay: CHT inhibitors, dose response, cell-based, 10-point CRC, membrane potential dye (AID 588401);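 note: membrane potential dye fluorescence of choline-evoked depolarization via CHT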
[3] = molecular target: T1, High affinity choline transporter 1; assay: inhibitors of CHT choline uptake, dose response, cell-based, 3H-choline uptake, CHT LV-AA trafficking mutant, CRC (AID 602208)
Orexin receptor type 2 [4] = molecular target: T2, Orexin receptor type 2 (Homo sapiens, UniProt O43614); assay: Counterscreen assay for antagonists of the orexin 1 receptor (OX1R; HCRTR1): Fluorescence-based cell-based dose response assay for antagonists of the orexin 2 receptor (OX2R; HCRTR2), run by assay provider.
T2 sequence (O43614 whole entry): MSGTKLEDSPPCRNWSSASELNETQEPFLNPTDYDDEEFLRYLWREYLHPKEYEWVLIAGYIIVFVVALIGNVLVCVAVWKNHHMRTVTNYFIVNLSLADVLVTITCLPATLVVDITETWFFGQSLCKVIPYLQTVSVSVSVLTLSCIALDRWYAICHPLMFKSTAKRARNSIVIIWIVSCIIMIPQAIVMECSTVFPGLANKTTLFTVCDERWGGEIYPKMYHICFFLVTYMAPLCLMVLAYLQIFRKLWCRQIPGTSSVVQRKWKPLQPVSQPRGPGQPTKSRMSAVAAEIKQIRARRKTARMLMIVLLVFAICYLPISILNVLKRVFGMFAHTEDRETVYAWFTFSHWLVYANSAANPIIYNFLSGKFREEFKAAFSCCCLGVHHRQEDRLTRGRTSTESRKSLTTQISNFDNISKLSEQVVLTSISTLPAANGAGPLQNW

Orexin receptor type 2 [5] = molecular target: T2, Orexin receptor type 2; assay: Counterscreen assay for antagonists of the orexin 1 receptor (OX1R; HCRTR1): Homogeneous Time Resolved Fluorescence (HTRF)-based cell-based dose response assay for antagonists of the orexin 2 receptor (OX2R; HCRTR2), run by assay provider.
[6] = molecular target: T3, Orexin/Hypocretin receptor type 1 (Homo sapiens, UniProt O43613); assay: Homogeneous Time Resolved Fluorescence (HTRF)-based cell-based high throughput dose response assay for antagonists of the orexin 1 receptor (OX1R; HCRTR1). [Related pubchem assays (depositor defined):AID434989, AID435008, AID463079, AID485270, AID492963, AID492964, AID492965, AID493232, AID504717, AID504718]
T3 sequence (O43613 whole entry): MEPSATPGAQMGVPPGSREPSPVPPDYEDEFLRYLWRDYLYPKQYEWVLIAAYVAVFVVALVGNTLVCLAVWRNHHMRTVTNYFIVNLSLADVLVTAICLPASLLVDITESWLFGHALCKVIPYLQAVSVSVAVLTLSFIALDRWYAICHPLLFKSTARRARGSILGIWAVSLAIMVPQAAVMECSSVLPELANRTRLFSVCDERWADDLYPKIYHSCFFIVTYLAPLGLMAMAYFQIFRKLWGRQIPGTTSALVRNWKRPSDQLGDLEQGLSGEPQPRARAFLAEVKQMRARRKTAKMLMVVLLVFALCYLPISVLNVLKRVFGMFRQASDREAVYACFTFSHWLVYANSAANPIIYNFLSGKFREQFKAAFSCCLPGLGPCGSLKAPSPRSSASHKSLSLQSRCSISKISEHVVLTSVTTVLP

[7] = (§1) Counterscreen for antagonists of the orexin 1 receptor (OX1R; HCRTR1): Fluorescence-based cell-based high throughput dose response assay to identify antagonists of the parental CHO cell line. [Related pubchem assays (depositor defined):AID434989, AID435008, AID463079, AID485270, AID492963, AID492964, AID492965, AID493232, AID504699, AID504701]
[8] = molecular target: T3, Orexin/Hypocretin receptor type 1; assay: Fluorescence-based cell-based high throughput dose response assay for antagonists of the orexin 1 receptor (OX1R; HCRTR1). [Related pubchem assays (depositor defined):AID434989, AID435008, AID463079, AID485270, AID492963, AID492964, AID492965, AID493232, AID504717, AID504718]
CHO-K1 = assay: as §1, with “Homogeneous time resolved fluorescence (HTRF)-based” for “Fluorescence-based”, “cell-based” for “cell-based high throughput”, “CHO-K1” for “CHO”; settings: Cricetulus griseus;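 note: potency for inhibition of ATP-stimulated IP1 production as antagonists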
Prothrombin = Prothrombin (Bos taurus, UniProt P00735); assay: thrombin inhibition, dose response, biochemical, fluorescence polarization, uHTS hits (AID 602369)
[9] = molecular target: 72 kDa type IV collagenase (Homo sapiens, UniProt P08253); assay: Dose Response validation of uHTS RPN11 inhibitor hits using a MMP-2 Fluorescence assay.
Sequence of 72 kDa type IV collagenase (P08253 whole entry): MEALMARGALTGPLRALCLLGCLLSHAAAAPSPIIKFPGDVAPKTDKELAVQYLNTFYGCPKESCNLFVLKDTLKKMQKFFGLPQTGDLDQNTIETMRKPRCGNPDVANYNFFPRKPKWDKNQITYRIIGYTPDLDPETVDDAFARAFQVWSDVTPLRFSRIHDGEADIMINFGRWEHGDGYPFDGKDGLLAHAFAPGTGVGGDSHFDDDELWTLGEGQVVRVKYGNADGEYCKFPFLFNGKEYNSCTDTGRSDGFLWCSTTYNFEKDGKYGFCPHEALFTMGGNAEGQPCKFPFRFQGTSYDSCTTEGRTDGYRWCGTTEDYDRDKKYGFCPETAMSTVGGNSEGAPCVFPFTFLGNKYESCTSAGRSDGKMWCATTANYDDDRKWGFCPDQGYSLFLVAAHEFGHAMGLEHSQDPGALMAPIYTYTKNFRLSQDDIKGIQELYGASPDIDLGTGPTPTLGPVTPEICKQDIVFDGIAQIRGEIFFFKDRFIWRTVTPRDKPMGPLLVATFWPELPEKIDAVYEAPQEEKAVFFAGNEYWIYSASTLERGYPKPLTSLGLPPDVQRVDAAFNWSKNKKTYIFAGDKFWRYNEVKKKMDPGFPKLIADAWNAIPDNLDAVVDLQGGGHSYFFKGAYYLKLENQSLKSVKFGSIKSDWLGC

[10] = molecular target: 26S proteasome non-ATPase regulatory subunit 14 (Homo sapiens, UniProt O00487); assay: inhibition of proteasome subunit RPN11 – biochemical, fluorescence polarization, uHTS hits, confirmation (AID 602368)
Sequence of 26S proteasome non-ATPase regulatory subunit 14 (O00487 whole entry): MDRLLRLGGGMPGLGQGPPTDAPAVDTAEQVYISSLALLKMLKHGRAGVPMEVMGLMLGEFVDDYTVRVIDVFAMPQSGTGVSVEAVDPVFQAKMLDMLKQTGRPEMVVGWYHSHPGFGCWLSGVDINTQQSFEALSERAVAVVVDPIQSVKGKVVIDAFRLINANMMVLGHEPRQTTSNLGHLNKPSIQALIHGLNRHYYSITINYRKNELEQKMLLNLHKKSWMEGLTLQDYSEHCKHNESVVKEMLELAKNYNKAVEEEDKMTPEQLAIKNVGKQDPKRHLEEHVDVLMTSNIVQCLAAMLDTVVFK

[11] = molecular target: Ras and Rab interactor 1/Tyrosine-protein kinase ABL1 (Homo sapiens, UniProt P00519+Q13671);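 note: biochemical TR-FRET dose-response test measuring inhibition of binding between Rin1 and Abl proteins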
Sequence of Ras and Rab interactor 1/Tyrosine-protein kinase ABL1 (P00519 whole entry): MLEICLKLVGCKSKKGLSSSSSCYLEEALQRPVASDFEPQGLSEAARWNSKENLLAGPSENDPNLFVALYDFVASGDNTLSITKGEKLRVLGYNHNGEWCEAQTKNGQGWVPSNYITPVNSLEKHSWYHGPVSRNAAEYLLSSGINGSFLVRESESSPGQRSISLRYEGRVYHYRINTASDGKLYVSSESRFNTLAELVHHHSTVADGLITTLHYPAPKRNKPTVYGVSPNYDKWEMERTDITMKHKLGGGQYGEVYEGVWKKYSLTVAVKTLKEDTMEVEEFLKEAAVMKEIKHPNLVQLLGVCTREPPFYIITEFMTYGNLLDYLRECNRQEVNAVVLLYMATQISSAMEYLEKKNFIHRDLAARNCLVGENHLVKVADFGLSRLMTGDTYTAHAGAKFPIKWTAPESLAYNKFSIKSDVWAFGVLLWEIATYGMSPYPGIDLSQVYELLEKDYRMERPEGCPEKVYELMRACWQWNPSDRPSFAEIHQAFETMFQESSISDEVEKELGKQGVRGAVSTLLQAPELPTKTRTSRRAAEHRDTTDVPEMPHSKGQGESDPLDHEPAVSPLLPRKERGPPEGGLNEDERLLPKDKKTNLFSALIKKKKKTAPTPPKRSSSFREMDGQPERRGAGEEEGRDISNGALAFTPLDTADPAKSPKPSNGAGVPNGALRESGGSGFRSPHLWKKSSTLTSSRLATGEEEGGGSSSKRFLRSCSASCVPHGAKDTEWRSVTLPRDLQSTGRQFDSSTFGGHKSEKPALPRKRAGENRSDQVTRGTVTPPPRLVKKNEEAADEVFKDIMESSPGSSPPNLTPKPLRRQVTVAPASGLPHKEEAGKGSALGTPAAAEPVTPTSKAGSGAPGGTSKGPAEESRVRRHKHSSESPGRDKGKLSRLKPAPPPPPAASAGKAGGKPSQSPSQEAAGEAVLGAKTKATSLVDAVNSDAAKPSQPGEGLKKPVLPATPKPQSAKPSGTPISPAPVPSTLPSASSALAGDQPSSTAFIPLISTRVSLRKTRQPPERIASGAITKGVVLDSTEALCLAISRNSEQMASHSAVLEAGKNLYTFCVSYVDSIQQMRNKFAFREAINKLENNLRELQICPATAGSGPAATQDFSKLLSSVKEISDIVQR
Sequence of Ras and Rab interactor 1/Tyrosine-protein kinase ABL1 (Q13671 whole entry): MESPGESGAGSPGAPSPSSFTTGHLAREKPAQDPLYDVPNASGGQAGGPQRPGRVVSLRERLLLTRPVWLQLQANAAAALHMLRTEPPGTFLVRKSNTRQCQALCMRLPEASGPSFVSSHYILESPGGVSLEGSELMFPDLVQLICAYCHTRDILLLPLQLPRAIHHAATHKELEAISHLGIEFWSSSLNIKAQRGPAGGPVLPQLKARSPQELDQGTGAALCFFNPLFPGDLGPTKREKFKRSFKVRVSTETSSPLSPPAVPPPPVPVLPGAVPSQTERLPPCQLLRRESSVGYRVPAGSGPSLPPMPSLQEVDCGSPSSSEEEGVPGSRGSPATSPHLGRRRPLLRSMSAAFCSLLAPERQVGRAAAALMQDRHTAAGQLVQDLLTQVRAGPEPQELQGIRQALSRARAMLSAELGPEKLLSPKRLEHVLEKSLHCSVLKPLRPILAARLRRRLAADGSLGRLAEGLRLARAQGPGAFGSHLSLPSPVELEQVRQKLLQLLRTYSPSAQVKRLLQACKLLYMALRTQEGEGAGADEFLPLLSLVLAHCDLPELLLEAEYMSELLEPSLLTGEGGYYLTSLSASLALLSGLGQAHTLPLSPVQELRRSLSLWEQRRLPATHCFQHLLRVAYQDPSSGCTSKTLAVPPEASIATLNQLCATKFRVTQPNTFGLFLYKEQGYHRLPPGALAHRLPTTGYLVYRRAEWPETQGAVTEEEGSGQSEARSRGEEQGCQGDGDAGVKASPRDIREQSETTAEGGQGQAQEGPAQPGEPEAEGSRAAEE

[12] = molecular target: Vascular endothelial growth factor receptor 2 (Homo sapiens, UniProt P35968)
Sequence of Vascular endothelial growth factor receptor 2 (P35968 whole entry): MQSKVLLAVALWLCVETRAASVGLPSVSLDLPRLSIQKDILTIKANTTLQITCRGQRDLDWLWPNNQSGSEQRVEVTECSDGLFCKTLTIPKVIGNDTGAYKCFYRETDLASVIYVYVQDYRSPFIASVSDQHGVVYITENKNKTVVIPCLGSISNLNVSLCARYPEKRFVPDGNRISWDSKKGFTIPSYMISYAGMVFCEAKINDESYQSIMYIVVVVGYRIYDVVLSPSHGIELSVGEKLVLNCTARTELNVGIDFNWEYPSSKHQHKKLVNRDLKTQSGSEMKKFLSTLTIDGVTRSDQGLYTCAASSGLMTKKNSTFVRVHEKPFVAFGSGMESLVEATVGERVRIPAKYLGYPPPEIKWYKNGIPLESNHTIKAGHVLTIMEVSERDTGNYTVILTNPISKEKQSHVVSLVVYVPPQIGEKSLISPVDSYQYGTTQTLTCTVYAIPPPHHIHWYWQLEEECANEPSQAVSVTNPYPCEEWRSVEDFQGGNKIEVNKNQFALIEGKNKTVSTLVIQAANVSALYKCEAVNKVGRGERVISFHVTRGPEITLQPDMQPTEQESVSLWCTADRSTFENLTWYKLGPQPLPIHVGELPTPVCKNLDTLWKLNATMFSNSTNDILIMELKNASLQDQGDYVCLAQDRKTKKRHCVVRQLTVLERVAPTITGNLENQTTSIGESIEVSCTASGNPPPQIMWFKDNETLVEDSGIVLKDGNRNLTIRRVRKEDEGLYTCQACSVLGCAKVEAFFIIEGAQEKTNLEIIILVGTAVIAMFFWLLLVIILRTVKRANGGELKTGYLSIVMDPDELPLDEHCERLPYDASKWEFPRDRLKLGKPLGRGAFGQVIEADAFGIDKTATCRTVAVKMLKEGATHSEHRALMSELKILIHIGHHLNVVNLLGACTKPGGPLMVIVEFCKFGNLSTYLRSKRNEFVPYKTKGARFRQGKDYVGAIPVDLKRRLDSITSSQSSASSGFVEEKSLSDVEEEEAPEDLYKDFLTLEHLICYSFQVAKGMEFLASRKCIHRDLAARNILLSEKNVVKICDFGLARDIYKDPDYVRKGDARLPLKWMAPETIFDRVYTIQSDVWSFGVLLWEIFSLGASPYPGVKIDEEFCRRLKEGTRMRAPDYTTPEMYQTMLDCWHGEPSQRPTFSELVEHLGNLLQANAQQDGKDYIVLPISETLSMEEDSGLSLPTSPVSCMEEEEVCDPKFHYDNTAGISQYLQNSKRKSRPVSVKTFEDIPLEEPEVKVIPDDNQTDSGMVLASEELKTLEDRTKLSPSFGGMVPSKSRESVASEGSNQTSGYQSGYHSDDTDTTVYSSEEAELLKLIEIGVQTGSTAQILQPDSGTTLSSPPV

Aurora kinase A = molecular target: T4, Aurora kinase A (Homo sapiens, UniProt O14965);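 note: value from the Navigating the Kinome kinase panel profiling, panel entry STK6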
T4 sequence (O14965 whole entry): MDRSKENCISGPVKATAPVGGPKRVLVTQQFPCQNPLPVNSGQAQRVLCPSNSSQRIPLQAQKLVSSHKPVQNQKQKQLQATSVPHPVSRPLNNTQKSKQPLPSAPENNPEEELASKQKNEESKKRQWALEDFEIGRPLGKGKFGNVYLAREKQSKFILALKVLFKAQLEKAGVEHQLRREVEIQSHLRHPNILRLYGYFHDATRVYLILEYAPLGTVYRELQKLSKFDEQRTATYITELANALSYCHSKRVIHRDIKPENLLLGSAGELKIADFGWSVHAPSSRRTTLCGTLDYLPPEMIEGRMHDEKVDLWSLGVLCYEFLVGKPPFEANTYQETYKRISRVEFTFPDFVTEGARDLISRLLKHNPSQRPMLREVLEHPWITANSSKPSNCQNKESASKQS

Aurora kinase B = Aurora kinase B (Homo sapiens, UniProt Q96GD4)
Sequence of Aurora kinase B (Q96GD4 whole entry): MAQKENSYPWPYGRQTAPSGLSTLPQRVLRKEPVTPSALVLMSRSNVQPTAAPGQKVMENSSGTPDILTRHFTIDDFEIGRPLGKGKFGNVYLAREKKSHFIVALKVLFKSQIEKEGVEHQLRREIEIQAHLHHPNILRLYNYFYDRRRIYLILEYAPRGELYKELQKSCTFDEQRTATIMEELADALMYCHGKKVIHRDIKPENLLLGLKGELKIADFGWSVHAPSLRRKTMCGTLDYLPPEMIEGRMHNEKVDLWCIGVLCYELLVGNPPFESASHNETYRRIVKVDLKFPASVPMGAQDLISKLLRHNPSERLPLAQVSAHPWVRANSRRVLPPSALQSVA

| Structure (SMILES) | IC50 (Orexin receptor type 2 [4]) | IC50 (Orexin receptor type 2 [5]) | IC50 [6] | IC50 [7] | IC50 [8] | IC50 (CHO-K1) | further results |
| --- | --- | --- | --- | --- | --- | --- | --- |
| CC(NC(=O)c1ccc(OC2CCN(Cc3ccccn3)CC2)cc1)c1ccccc1 (configuration not stated) |  |  |  |  |  |  | IC50 [1]: 1.6 µM (active); IC50 [2]: 1.26 µM (active); IC50 [3]: 1.79 µM (active) |
| O=c1c2ccccc2nc2c3ccccc3c(NCc3ccccn3)nn12 | > 88.8 µM (inactive) | > 50 µM (inactive) | 4.96 µM (active) | > 49.7 µM (inactive) | 16.7 µM (inactive) | > 66.2 µM (inactive) |  |
| Cc1cc(C)c2cc3c(N)c(C(=O)Nc4c(C)nc(O)nc4O)sc3nc2c1 |  |  |  |  |  |  | IC50 (Prothrombin): 15.5 µM (active); IC50 [9]: > 100 µM (inactive); IC50 [10]: 13.2 µM (active) |
| N#Cc1ccccc1Sc1ccccc1C(=O)NCC(c1ccco1)N1CCCC1 (configuration not stated) |  |  |  |  |  |  | IC50 [11]: 2.48 µM (active) |
| COc1cc(Nc2ncc(C(F)(F)F)c(OC)n2)cc(OC)c1OC |  |  |  |  |  |  | Ki [12]: 0.631 µM (active); Ki (Aurora kinase A): 0.0501 µM (active); Ki (Aurora kinase B): 0.0158 µM (active) |
| Cc1ccsc1/C=N/N=C1\C(=O)Nc2ccccc21 | > 88.8 µM (inactive) | > 50 µM (inactive) | 2.36 µM (active) | > 49.7 µM (inactive) | 8.44 µM (active) | 46.8 µM (inactive) |  |
